Assay results published in patent publication US8680111B2 (Pfizer Inc., priority 2012, dated 2014).
pIC50, pKi: −log10 of the molar value. Read-outs that look alike come from different tables or passages of the source.

Key:
[1] = biological target: T1, human recombinant L1196M ALK kinase domain (amino acids 1093-1411) (Homo sapiens, UniProt Q9UM73, L1196M); experiment: L1196M mutant ALK enzyme assay (microfluidic mobility shift); format: biochemical
T1 construct: ALK kinase domain (amino acids 1093-1411); made in house

[2] = 12-membered ring
[3] = biological target: T2, L1196M EML4-ALK (NIH-3T3 EML4-ALK v1 L1196M cells) (Homo sapiens, UniProt Q9UM73, L1196M); experiment: Cellular phospho-ALK (Tyr1604) ELISA assay for L1196M EML4-ALK; format: cell-based
T2 construct: expressed in transfected cells; the other entry of the earlier key: EML4 (Q9HC35, Echinoderm microtubule-associated protein-like 4)
Experimental: Cellular Phospho-ALK (Tyr1604) ELISA Assay for EML4-ALK:
The cells were maintained at 37° C. in a 5% CO2 incubator in DMEM (Invitrogen, Carlsbad, Calif.) medium supplemented with 1% L-glutamine, 1% penicillin and streptomycin, 1 ug/ml puromycin and 10% new born calf serum (NCS) in T-75 flasks.
Cells were washed with PBS and re-suspended in DMEM medium supplemented with 0.5% NCS and 1% pen/strep and seeded into 96-well plates at density of 20,000 cells/well/100 μl and incubated in the incubator at 37° C. and 5% CO2. After 20 hours of incubation, 100 μl of assay media (DMEM) in presence of designated PF-compounds concentrations or controls (DMSO) were added into plates and incubated for 1 hour in the incubator. Media was then removed and lysis buffer, containing phosphatase inhibitors and phenylmethanesulfonyl fluoride (PMSF), was added to wells and shaken at 4° C. for 30 minutes to generate protein lysates.
A phospho-ALK (Tyr1604) rabbit antibody was coated onto the 96-well microplates. 50 μl of cell lysates were added to the antibody coated plate and incubated at room temperature for 2 hours. Following extensive washing with 0.1% Tween 20 in PBS to remove unbound materials, ALK mouse mAb was added to detect captured phospho-ALK (Tyr1604) and phospho-ALK fusion proteins. Anti-mouse IgG, HRP-linked antibody was then used to recognize the bound detection antibody. Finally, the chemiluminescent reagent was added and incubated for 10 minutes for signal development. The assay plates were read in the Envision plate reader in the luminescent mode. IC50 values were calculated by a concentration-response curve fitting using a four-parameter analytic method.

[4] = biological target: T3, WT EML4-ALK (NIH-3T3 EML4-ALK wt v1 cells) (Homo sapiens, UniProt Q9UM73); experiment: Cellular phospho-ALK (Tyr1604) ELISA assay for WT EML4-ALK; format: cell-based; conditions: 1 hour
T3 construct: expressed in transfected cells; the other entry of the earlier key: EML4 (Q9HC35, Echinoderm microtubule-associated protein-like 4)

[5] = biological target: T4, human recombinant wild-type ALK kinase domain (amino acids 1093-1411) (Homo sapiens, UniProt Q9UM73); experiment: Wild-type ALK enzyme assay (microfluidic mobility shift); format: biochemical; conditions: ATP 60 μM, competitive inhibition fit
T4 construct: ALK kinase domain (amino acids 1093-1411); made in house
Experimental: The reactions were incubated for 1 h at room temperature, stopped by the addition of 0.1 M EDTA, pH 8, and the extent of reactions (˜15-20% conversion with no inhibitor) was determined after electrophoretic separation of the fluorescently labeled peptide substrate and phosphorylated product on an LabChip EZ Reader II (Caliper Life Sciences, Hopkinton, Mass.).

[6] = cc_pd bond
[7] = ATP 60 μM, 0.5 nM enzyme, competitive inhibition fit, read-out: L1196M ALK enzyme assay (Ki)
[8] = NIH-3T3 EML4-ALK v1 L1196M cells, 1 hour, phospho-ALK (Tyr1604), read-out: ELISA assay for L1196M EML4-ALK (IC50)
[9] = read-out: ELISA assay for WT EML4-ALK (IC50)
[10] = read-out: WT ALK enzyme assay (Ki)

pKi [1, 7]	pIC50 [3, 8]	pIC50 [4, 9]	pKi [5, 10]	Structure (SMILES)	other results
–	–	–	–	C[C@H]1Oc2nc(cnc2N)-c2c(nc3ccc(C#N)cn23)CN(C)C(=O)c2ccc(F)cc21	ring closure, yield after HPLC (cc_pd bond, 12-membered ring, cataCXium/t-AmOH/KOAc, DMAc, 11.9 mM, 110.0 °C): 12%
9.60	7.89	8.88	10.10	C[C@H]1Oc2nc(cnc2N)-c2c(C#N)nn(CC(F)F)c2CN(C)C(=O)c2ccc(F)cc21 [Example 90, (10R)-7-amino-1-(2,2-difluoroethyl)-12-fluoro-10,16-dimethyl-15-oxo-10,15,16,17-tetrahydro-1H-8,4-(azeno)pyrazolo[4,3-h][2,5,11]benzoxadiazacyclotetradecine-3-carbonitrile]	ring closure, isolated yield ([2]; cc_pd bond, Pd(OAc)2/cataCXium A/KOAc, t-amyl alcohol, 46.7 mM): 11%
8.43	6.77	7.99	> 9.60	C[C@H]1Oc2cc(cnc2N)-c2c(nn(C)c2C#N)CN(C)C(=O)c2ccccc21 [Example 71, (10R)-7-amino-2,10,16-trimethyl-15-oxo-10,15,16,17-tetrahydro-2H-8,4-(metheno)pyrazolo[4,3-h][2,5,11]benzoxadiazacyclotetradecine-3-carbonitrile]	ring closure, yield after HPLC (cc_pd bond, 12-membered ring, B2pin2/Pd(OAc)2/cataCXium A/CsF, MeOH/H2O, 12.7 mM, 100.0 °C): 13%
9.41	6.72	7.81	9.70	C[C@H]1Oc2cc(cnc2N)-c2c(n[nH]c2C#N)CN(C)C(=O)c2ccc(F)cc21 [Example 88, (10R)-7-amino-12-fluoro-10,16-dimethyl-15-oxo-10,15,16,17-tetrahydro-2H-8,4-(metheno)pyrazolo[4,3-h][2,5,11]benzoxadiazacyclotetradecine-3-carbonitrile]	ring closure, yield after HPLC (amide bond, 12-membered ring, HATU/DIEA, DMF, 8.3 mM, 0.0 °C): 12%
8.62	6.77	7.89	9.48	C[C@H]1Oc2nc(cnc2N)-c2c(C#N)noc2CN(C)C(=O)c2ccc(F)cc21 [Example 73, (10R)-7-amino-12-fluoro-10,16-dimethyl-15-oxo-10,15,16,17-tetrahydro-8,4-(azeno)[1,2]oxazolo[4,5-h][2,5,11]benzoxadiazacyclotetradecine-3-carbonitrile]	ring closure, yield after HPLC (cc_pd bond, 12-membered ring, Pd(OAc)2/cataCXium A/KOAc/PivOH, DMA, 49.9 mM, 120.0 °C): 21%
8.62	6.74	7.95	> 9.70	CCc1onc2c1-c1cnc(N)c(c1)O[C@H](C)c1cc(F)ccc1C(=O)N(C)C2 [Example 82, (10R)-7-amino-3-ethyl-12-fluoro-10,16-dimethyl-16,17-dihydro-8,4-(metheno)[1,2]oxazolo[4,3-h][2,5,11]benzoxadiazacyclotetradecin-15(10H)-one]	ring closure, isolated yield ([2]; amide bond, 3 steps): 66%
9.56	7.25	8.19	9.47	C[C@H]1Oc2nc(cnc2N)-c2c(C#N)n[nH]c2CN(C)C(=O)c2ccc(F)cc21 [Example 89, (10R)-7-amino-12-fluoro-10,16-di methyl-15-oxo-10,15,16,17-tetrahydro-1H-8,4-(azeno)pyrazolo[4,3-h][2,5,11]benzoxadiazacyclotetradecine-3-carbonitrile]	ring closure, isolated yield ([2]; amide bond, HATU/DIEA, DMF, 12.6 mM): 15.8%
7.55	5.37	6.46	8.29	C[C@H]1Oc2nc(cnc2N)-c2c(C(N)=O)noc2CN(C)C(=O)c2ccc(F)cc21 [Example 72, (10R)-7-amino-12-fluoro-10,16-dimethyl-15-oxo-10,15,16,17-tetrahydro-8,4-(azeno)[1,2]oxazolo[4,5-h][2,5,11]benzoxadiazacyclotetradecine-3-carboxamide]	ring closure, yield after HPLC (cc_pd bond, 12-membered ring, Pd(OAc)2/cataCXium A/KOAc/PivOH, DMA, […], 120.0 °C): 12%
9.06	7.46	8.74	9.70	C[C@H]1Oc2nc(cnc2N)-c2cn(C)nc2CN(C)C(=O)c2ccc(F)cc21 [Example 56, (10R)-7-amino-12-fluoro-2,10,16-trimethyl-16,17-dihydro-2H-8,4-(azeno)pyrazolo[4,3-h][2,5,11]benzoxadiazacyclotetradecin-15(10H)-one]	ring closure, isolated yield ([2]; cc_pd bond, Pd(OAc)2/cataCXium A/KOAc, t-amyl alcohol, 69.8 mM, 120.0 °C): 6%
7.61	–	–	8.46	C[C@H]1Oc2nc(cnc2N)-c2c(C#N)cccc2CN(C)C(=O)c2ccc(F)cc21 [Example 97, (5R)-8-amino-3-fluoro-5,17-dimethyl-18-oxo-5,16,17,18-tetrahydro-7,11-(azeno)dibenzo[g,l][1,4,10]oxadiazacyclotetradecine-12-carbonitrile]	ring closure, isolated yield ([2]; amide bond, HATU/DIEA, DMF, 6.7 mM): 42%
6.30	–	–	< 5.52	COc1nccc2c1-c1cnc(N)c(c1)OC(C)c1cc(F)ccc1C(=O)N(C)C2 (stereo not shown) [Example 45, 8-amino-13-fluoro-4-methoxy-11,17-dimethyl-17,18-dihydro-9,5-(metheno)pyrido[3,4-h][2,5,11]benzoxadiazacyclotetradecin-16(11H)-one]	ring closure, yield after HPLC (amide bond, 12-membered ring, CMPI/DIEA, DMA, 10.0 mM, 0.0 °C): 4%
–	–	–	–	Cc1cnc2nc3c(n2c1)-c1cnc(N)c(c1)O[C@H](C)c1cc(F)ccc1C(=O)N(C)C3 [Example 57, (5R)-8-amino-3-fluoro-5,14,19-trimethyl-18,19-dihydro-7,11-(metheno)-pyrimido[2′,1′:2,3]imidazo[4,5-h][2,5,11]benzoxadiazacyclotetradecin-20(5H)-one]	pKi ([1]; L1196M ALK enzyme assay (Ki)): 8.70; ring closure, isolated yield ([2]; amide bond, HATU/DIEA, DMF, 25.1 mM): 52%; pIC50 ([3]; ELISA assay for L1196M EML4-ALK (IC50)): 6.44; pIC50 ([4]; ELISA assay for WT EML4-ALK (IC50)): 8.17; pKi ([5]; WT ALK enzyme assay (Ki)): 9.85
–	–	–	–	Cc1cnc2nc3cn2c1-c1cnc(N)c(n1)O[C@H](C)c1cc(F)ccc1C(=O)N(C)C3	ring closure, yield after HPLC (cc_pd bond, Pd(OAc)2/cataCXium A/KOAc, t-amyl alcohol, 30.0 mM, 120.0 °C): 7%
10.22	8.52	9.48	> 10.15	C[C@H]1Oc2nc(cnc2N)-c2c(nn(C)c2C#N)CN(C2CC2)C(=O)c2ccc(F)cc21 [Example 54, (10R)-7-amino-16-cyclopropyl-12-fluoro-2,10-dimethyl-15-oxo-10,15,16,17-tetrahydro-2H-8,4-(azeno)pyrazolo[4,3-h][2,5,11]benzoxadiazacyclotetradecine-3-carbonitrile]	ring closure, isolated yield ([2]; cc_pd bond, Pd(OAc)2/cataCXium A/PivOH/KOAc, t-AmOH/water (1 drop), 37.0 mM, […]): 54%
–	–	–	–	Cc1nn(C)c2c1-c1cnc(N)c(n1)OC(C)c1cc(F)ccc1C(=O)N(C)C2 (stereo not shown)	ring closure, yield of all isomers ([6]; from Cc1nn(C)c(CN(C)C(=O)c2ccc(F)cc2C(C)Oc2nc(Br)cnc2N)c1Br, Pd(OAc)2 / di(1-adamantyl)-n-butylphosphine, bis(pinacolato)diboron, CsF, MeOH, 42.4 mM, 100.0 °C, 8.5 h, 2 steps): 6%
8.41	7.28	8.65	> 8.73	CCc1noc2c1-c1cnc(N)c(c1)O[C@H](C)c1cc(F)ccc1C(=O)N(C)C2 [Example 81, (10R)-7-amino-3-ethyl-12-fluoro-10,16-dimethyl-16,17-dihydro-8,4-(metheno)[1,2]oxazolo[4,5-h][2,5,11]benzoxadiazacyclotetradecin-15(10H)-one]	ring closure, yield after HPLC (cc_pd bond, 12-membered ring, Pd(OAc)2/cataCXium A/KOAc/PivOH, DMA, 50.0 mM, […]): 6%
8.85	7.08	7.93	9.48	C[C@H]1Oc2nc(cnc2N)-c2c(nn(C)c2C#N)CNC(=O)c2ccc(F)cc21 [Example 102, (10R)-7-amino-12-fluoro-2,10-dimethyl-15-oxo-10,15,16,17-tetrahydro-2H-8,4-(azeno)pyrazolo[4,3-h][2,5,11]benzoxadiazacyclotetradecine-3-carbonitrile]	ring closure, isolated yield ([2]; amide bond, KOH, MeOH, […], 2 steps): 28%
–	–	–	–	Cc1cnc2nc3c(n2c1)-c1cnc(N)c(n1)O[C@H](C)c1cc(F)ccc1C(=O)N(C)C3	ring closure, yield of all isomers ([6]; from Cc1cnc2nc(CN(C)C(=O)c3ccc(F)cc3[C@@H](C)Oc3nc(Br)cnc3N)cn2c1, Pd(OAc)2/cataCXium A, KOAc, tert-amyl alcohol, 30.0 mM, 120.0 °C, 2.0 h): 50%
